Test results published in publication PMC9516332 (Frontiers in Oncology, 2022).
Where two headings read alike, the source gives them in different places.

Experiments:
[1] = molecular target: T1, panel of 255 wild-type kinases (Homo sapiens, UniProt Q9BZL6); experiment: Kinase panel profiling at 1 µmol/L (MSA or IMAP), percentage inhibition; format: biochemical; conditions: kinase PKD2; 1 µmol/L single concentration; read-out: %-inhibition at 1 µmol/L, PKD2
T1 sequence (Q9BZL6 1-878): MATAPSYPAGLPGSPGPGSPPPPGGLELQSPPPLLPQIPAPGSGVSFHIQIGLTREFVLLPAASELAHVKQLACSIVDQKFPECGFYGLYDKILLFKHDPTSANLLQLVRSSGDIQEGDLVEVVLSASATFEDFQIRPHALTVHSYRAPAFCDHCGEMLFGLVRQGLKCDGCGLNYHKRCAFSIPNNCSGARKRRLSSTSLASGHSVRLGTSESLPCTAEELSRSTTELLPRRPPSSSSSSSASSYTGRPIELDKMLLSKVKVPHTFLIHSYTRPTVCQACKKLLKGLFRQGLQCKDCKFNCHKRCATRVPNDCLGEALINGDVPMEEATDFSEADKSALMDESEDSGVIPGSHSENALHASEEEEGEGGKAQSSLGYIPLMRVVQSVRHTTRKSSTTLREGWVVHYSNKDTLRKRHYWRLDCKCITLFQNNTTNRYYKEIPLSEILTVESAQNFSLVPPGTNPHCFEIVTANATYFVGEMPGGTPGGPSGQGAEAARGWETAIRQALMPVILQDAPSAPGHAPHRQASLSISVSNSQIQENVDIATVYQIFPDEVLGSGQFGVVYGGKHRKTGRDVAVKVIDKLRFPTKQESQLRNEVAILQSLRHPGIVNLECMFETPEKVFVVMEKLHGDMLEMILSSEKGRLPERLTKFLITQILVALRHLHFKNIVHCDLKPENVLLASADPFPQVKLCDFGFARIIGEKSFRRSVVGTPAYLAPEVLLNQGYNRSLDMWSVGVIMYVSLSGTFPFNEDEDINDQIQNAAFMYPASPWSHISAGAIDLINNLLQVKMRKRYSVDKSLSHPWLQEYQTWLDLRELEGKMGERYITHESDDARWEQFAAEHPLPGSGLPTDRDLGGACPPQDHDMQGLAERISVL

[2] = system: 134 cancer cell lines; experiment: Cell viability assay (ATPlite, 72 hours), IC50 on cancer cell line panel

SMILES: Cc1nc(NC(=O)N2CCC[C@H]2C(N)=O)sc1-c1ccnc(C(C)(C)C(F)(F)F)c1 [alpelisib]
- inhibition at 1 µM [1]: -20%
- IC50 ([2]; HEC-6, read-out: IC50 in cell proliferation assay, HEC-6 cell line (EGFR p.A289V)): 7.66 µM
- IC50 ([2]; Homo sapiens, 769-P, read-out: IC50 in cell proliferation assay, cell line 769-P): 14.3 µM
- IC50 ([2]; Homo sapiens, 786-0, read-out: IC50 in cell proliferation assay, cell line 786-O): > 31.6 µM
- IC50 ([2]; Homo sapiens, A 172, read-out: IC50 in cell proliferation assay, cell line A-172): 19.6 µM
- IC50 ([2]; Homo sapiens, A204, read-out: IC50 in cell proliferation assay, cell line A-204): 0.247 µM
- IC50 ([2]; Homo sapiens, A498, read-out: IC50 in cell proliferation assay, cell line A-498): 14.4 µM
- IC50 ([2]; Homo sapiens, A549, read-out: IC50 in cell proliferation assay, cell line A-549): 9.89 µM
- IC50 ([2]; Homo sapiens, A704, read-out: IC50 in cell proliferation assay, cell line A-704): 27 µM
- IC50 ([2]; Homo sapiens, A-375, read-out: IC50 in cell proliferation assay, cell line A-375 (BRAF p.V600E)): 14.9 µM
- IC50 ([2]; Homo sapiens, A-427, read-out: IC50 in cell proliferation assay, cell line A-427): 0.074 µM
- IC50 ([2]; Homo sapiens, ACHN, read-out: IC50 in cell proliferation assay, cell line ACHN): 9.68 µM
- IC50 ([2]; Homo sapiens, AN3-CA, read-out: IC50 in cell proliferation assay, cell line AN3-CA (FGFR2 p.N549K)): 0.697 µM
- IC50 ([2]; Homo sapiens, ASPC1, read-out: IC50 in cell proliferation assay, cell line AsPC-1): 8.97 µM
- IC50 ([2]; Homo sapiens, AU565, read-out: IC50 in cell proliferation assay, cell line AU565 (ERBB2 amplification)): 1.56 µM
- IC50 ([2]; Homo sapiens, BT-20, read-out: IC50 in cell proliferation assay, cell line BT-20): 3.55 µM
- IC50 ([2]; Homo sapiens, BT-474, read-out: IC50 in cell proliferation assay, cell line BT-474 (ERBB2 amplification)): 3.2 µM
- IC50 ([2]; Homo sapiens, BT-549, read-out: IC50 in cell proliferation assay, cell line BT-549): 16.6 µM
- IC50 ([2]; Homo sapiens, BXPC-3, read-out: IC50 in cell proliferation assay, cell line BxPC-3): 5.88 µM
- IC50 ([2]; Homo sapiens, C-33-A, read-out: IC50 in cell proliferation assay, cell line C-33 A): 25.1 µM
- IC50 ([2]; Homo sapiens, CAL-27, read-out: IC50 in cell proliferation assay, cell line CAL-27): 2.31 µM
- IC50 ([2]; Homo sapiens, CCF-STTG1, read-out: IC50 in cell proliferation assay, cell line CCF-STTG1): > 31.6 µM
- IC50 ([2]; Homo sapiens, CCRF-CEM, read-out: IC50 in cell proliferation assay, cell line CCRF-CEM): 4.28 µM
- IC50 ([2]; Homo sapiens, COLO 205, read-out: IC50 in cell proliferation assay, cell line COLO 205 (BRAF p.V600E)): 14.1 µM
- IC50 ([2]; Homo sapiens, COLO-829, read-out: IC50 in cell proliferation assay, cell line COLO 829 (BRAF p.V600E)): > 31.6 µM
- IC50 ([2]; Homo sapiens, DLD-1, read-out: IC50 in cell proliferation assay, cell line DLD-1): 0.676 µM
- IC50 ([2]; Homo sapiens, DU-4475, read-out: IC50 in cell proliferation assay, cell line DU4475 (BRAF p.V600E)): 0.628 µM
- IC50 ([2]; Homo sapiens, Daoy, read-out: IC50 in cell proliferation assay, cell line Daoy): 9.36 µM
- IC50 ([2]; Homo sapiens, DoTc2-4510, read-out: IC50 in cell proliferation assay, cell line DoTc2 4510): 1.3 µM
- IC50 ([2]; Homo sapiens, EOL1, read-out: IC50 in cell proliferation assay, cell line EoL-1 (FIP1L1-PDGFRA)): 0.335 µM
- IC50 ([2]; Homo sapiens, FaDu, read-out: IC50 in cell proliferation assay, cell line FaDu): 1.71 µM
- IC50 ([2]; Homo sapiens, G-361, read-out: IC50 in cell proliferation assay, cell line G-361 (BRAF p.V600E)): 16.6 µM
- IC50 ([2]; Homo sapiens, HCC827, read-out: IC50 in cell proliferation assay, cell line HCC827 (EGFR exon19del)): 5.4 µM
- IC50 ([2]; Homo sapiens, HCC4006, read-out: IC50 in cell proliferation assay, cell line HCC4006 (EGFR exon19del)): 4.56 µM
- IC50 ([2]; Homo sapiens, HCT-15, read-out: IC50 in cell proliferation assay, cell line HCT 15): 0.838 µM
- IC50 ([2]; Homo sapiens, HCT-116, read-out: IC50 in cell proliferation assay, cell line HCT 116): 6.31 µM
- IC50 ([2]; Homo sapiens, HEC-1, read-out: IC50 in cell proliferation assay, HEC-1 cell line): 5.84 µM
- IC50 ([2]; Homo sapiens, HEC-1B, read-out: IC50 in cell proliferation assay, HEC-1-B cell line (EGFR p.A864V)): 0.943 µM
- IC50 ([2]; Homo sapiens, HL-60, read-out: IC50 in cell proliferation assay, HL-60 cell line): 1.69 µM
- IC50 ([2]; Homo sapiens, HT, read-out: IC50 in cell proliferation assay, HT cell line): 14.3 µM
- IC50 ([2]; Homo sapiens, HT-1080, read-out: IC50 in cell proliferation assay, HT-1080 cell line): 0.314 µM
- IC50 ([2]; Homo sapiens, Hs746T, read-out: IC50 in cell proliferation assay, Hs 746.T cell line (MET exon14skip + amplification)): 5.75 µM
- IC50 ([2]; Homo sapiens, Hs-578T, read-out: IC50 in cell proliferation assay, Hs 578T cell line): 8.51 µM
- IC50 ([2]; Homo sapiens, HuTu80, read-out: IC50 in cell proliferation assay, HuTu 80 cell line): 1.09 µM
- IC50 ([2]; Homo sapiens, J82, read-out: IC50 in cell proliferation assay, J82 cell line): > 31.6 µM
- IC50 ([2]; Homo sapiens, Jurkat E6.1, read-out: IC50 in cell proliferation assay, Jurkat E6.1 cell line): 12.9 µM
- IC50 ([2]; Homo sapiens, K562, read-out: IC50 in cell proliferation assay, K-562 cell line): > 31.6 µM
- IC50 ([2]; Homo sapiens, KATO III, read-out: IC50 in cell proliferation assay, KATO III cell line (FGFR2 amplification)): 2.79 µM
- IC50 ([2]; Homo sapiens, KG-1, read-out: IC50 in cell proliferation assay, KG-1 cell line (FGFR1OP2-FGFR1)): 27.7 µM
- IC50 ([2]; Homo sapiens, KLE, read-out: IC50 in cell proliferation assay, KLE cell line): 5.79 µM
- IC50 ([2]; Homo sapiens, KMS-11, read-out: IC50 in cell proliferation assay, KMS-11 cell line (FGFR3 p.Y373C)): 1.53 µM
- IC50 ([2]; Homo sapiens, KU812, read-out: IC50 in cell proliferation assay, Ku812 cell line): 0.075 µM
- IC50 ([2]; Homo sapiens, Kasumi 1, read-out: IC50 in cell proliferation assay, Kasumi-1 cell line (KIT p.N822K)): 1.9 µM
- IC50 ([2]; Homo sapiens, LC-2-ad, read-out: IC50 in cell proliferation assay, LC-2/ad cell line (CCDC6-RET)): 4.5 µM
- IC50 ([2]; Homo sapiens, LNCaP-Clone-FGC, read-out: IC50 in cell proliferation assay, LNCaP clone FGC cell line): > 31.6 µM
- IC50 ([2]; Homo sapiens, LS174T, read-out: IC50 in cell proliferation assay, LS174T cell line): 1.9 µM
- IC50 ([2]; Homo sapiens, LS-411N, read-out: IC50 in cell proliferation assay, LS411N cell line (BRAF p.V600E)): 17.4 µM
- IC50 ([2]; Homo sapiens, LoVo, read-out: IC50 in cell proliferation assay, LoVo cell line): 20.5 µM
- IC50 ([2]; Homo sapiens, MCF7, read-out: IC50 in cell proliferation assay, MCF-7 cell line): 2.79 µM
- IC50 ([2]; Homo sapiens, MDA-MB-231, read-out: IC50 in cell proliferation assay, MDA-MB-231 cell line): > 31.6 µM
- IC50 ([2]; Homo sapiens, MDA-MB-453, read-out: IC50 in cell proliferation assay, MDA-MB-453 cell line): 6.03 µM
- IC50 ([2]; Homo sapiens, MDA-MB-468, read-out: IC50 in cell proliferation assay, MDA-MB-468 cell line): 9.8 µM
- IC50 ([2]; Homo sapiens, MG-63, read-out: IC50 in cell proliferation assay, MG-63 cell line): 3.87 µM
- IC50 ([2]; Homo sapiens, MIA PaCa-2, read-out: IC50 in cell proliferation assay, MIA PaCa-2 cell line): 10.7 µM
- IC50 ([2]; Homo sapiens, MKN-45, read-out: IC50 in cell proliferation assay, MKN45 cell line (MET amplification)): 1.23 µM
- IC50 ([2]; Homo sapiens, MOLM-13, read-out: IC50 in cell proliferation assay, MOLM-13 cell line (FLT3 ITD)): 3.48 µM
- IC50 ([2]; Homo sapiens, MOLT-4, read-out: IC50 in cell proliferation assay, MOLT-4 cell line): 0.701 µM
